For orientation: ED50 means the midpoint of the dose-response relation. The term TD50 denotes the 50% point of the dose-response relation for the toxic effect studied.

The text below walks through data of patent US8710040B2, “Pharmaceutical composition comprising gabapentin or an analogue thereof and an α-aminoamide and its analgesic use” (Newron Pharmaceuticals S.p.A., priority 2001, dated 2014).

SMILES strings stand for the structures. Read-outs that look alike come from different tables or passages of the source.

The subject of data set [1] is monoarthritic rat model of chronic pain induced by complete Freund's adjuvant (CFA). The data set can be described thus: Antiallodynic effect (von Frey mechanical allodynia) in the monoarthritic rat model of chronic pain induced by CFA. The data set is classed as in vivo. Particulars: for ED50: Rattus norvegicus, po, read-out: ED50 (compound alone); for ED50 (as restated in the formulation example): compound alone, quoted in the 20 mg formulation example; for Interaction with GBP on the antiallodynic effect (ED50mix compared with ED50add or ED50 alone): oral co-administration with GBP at fixed ratios. How it is done:
This procedure involves the determination of the total amount in the mixture that is required to produce a specified synergistic antiallodynic effect at the 50% dose level (ED50mix) and the corresponding total amount that would be expected under simple additivity (ED50add). Where it is established that ED50mix<ED50add for a specific fixed ratio, then the composition has a synergistic antiallodynic effect. Both the quantities ED50mix and ED50add are random variables. ED50mix was determined from the dose-response curve for a specific fixed ratio of the components; ED50add was calculated from the ED50 values for the individual drugs.
Procedure for Testing the Antiallodynic Effect of the Composition of the Invention
Adult male. Wistar rats (body weight 175-200 g, Harlan-Nossan, Italy) were housed in separate cages with free access to water and standard rat chow at a constant temperature (22±0.5° C.) and relative humidity (60-70%), with a 6.00 am to 6.00 pm light-dark period.
The inflammation was induced in rats by an intra-plantar injection of complete Freund's adjuvant (CFA, Sigma-100 μl) into left hind paw containing heat-killed and dried Mycobacterium tuberculosis in a mixture of paraffin oil and mannide monooleate as emulsifying agent. A group of control animal were injected with 100 μl of mineral oil, the incomplete Freund's adjuvant (IFA, Sigma).
Each animal was allowed to develop the arthritis over an 8-9 day period of before testing.
Rats were placed in individual plastic boxes on a mesh metal floor and allowed to acclimatize for about 30 min. A series of calibrated von Frey hair with logarithmically incremental stiffness (from 2.83 to 5.88×Log10 of the bending force, g) were applied to the paw with the up-down method. Each hair was presented perpendicularly against the paw, with sufficient force to cause slight bending, and held approximately 2-3 sec. The filament was recorded when a positive response was noted (paw withdrawn, licking or shaking).
The antiallodynic effect was expressed as % MPE (Maximal Possible Effect) at 2 h post-dosing.
The rats were all dosed orally with various doses of an α-aminoamide alone, GBP alone, combined doses of an α-aminoamide and GBP or vehicle. The dosing volume was 2 ml/kg. The dosing materials were all prepared in the vehicle, (distilled water); drug weights were calculated as the free base.
Data are presented as mean of 4/6 animals per group/dose.
The ED50 was defined as the dose producing 50% reversal of mechanical hyperalgesia at 2 h after treatment. An experimental ED50 and 95% confidence intervals (CI) were calculated for each compound alone from the linear regressions fitting the experimental data according to the equation y=a+bx.
The different α-aminoamides were then combined with GBP at different ratios in relation to their respective ED50 previously calculated (not limiting examples of the ratios are 1:1; 1:3; 1:9 and respectively 1:1, 3:1 and 9:1 ratios) for the evaluation of the synergic effect.
Multiple (typically 4) doses of each selected ratio were then studied orally for evaluating the synergic effect of the combination.
Each rat received only one treatment.

A short description of data set [2]: Rat Rotarod test (motor impairment and ataxia). To be noted: in vivo, po, p.o. at 2 hours, dose causing 50% of the animals to fall from the roller, read-out: TD50 (compound alone). On the procedure: The Rotarod test is an established method used as predictive of CNS-related side effects in humans, and in particular motor impairment and ataxia.
The different α-aminoamides were then combined with GBP at different ratios in relation to their respective TD50 previously calculated (a non limiting example of the ratios is the 1:1 ratio) for the evaluation of the possible synergic effect. Data are presented as mean of 8/10 animals per group/dose.
The test was performed 120 min after drug administration.
Background: In the rotarod test animals must keep their balance on a rotating rod.

Where [3] appears, read: 2 h after single administration, dose producing 50% reversal of mechanical hyperalgesia, CFA rats.

Consider `NCC1(CC(=O)O)CCCCC1` [GBP, 1-(aminomethyl)cyclohexaneacetic acid, reference compound], for which, in data set [1] (2 h), the ED50 came to 12.4 mg/kg. In data set [1], the “ED50 (as restated in the formulation example)” value is listed as 12.40 mg. For the same compound, the TD50 at 120 min in data set [2] came to 430 mg/kg.
Take `C[C@H](NCc1ccc(OCc2ccccc2F)cc1)C(N)=O` [NW-1029, (S)-(+)-2-[4-(2-fluorobenzyloxy)benzylamino]propanamide]: the ED50 in data set [1] (setting [3]) worked out at 0.82 mg/kg. In data set [1], the “ED50 (as restated in the formulation example)” value was 0.82 mg and the “Interaction with GBP on the antiallodynic effect (ED50mix compared with ED50add or ED50 alone)” value is reported as “synergic to GBP”. In data set [2], the TD50 at 120 min was determined as 470 mg/kg.
`NC(=O)NN=Cc1ccc(Oc2ccc(F)cc2)cc1` [4-(4′-fluoro-phenoxy)benzaldehyde semicarbazone, reference compound]: in data set [1] (setting [3]), the ED50 worked out at 14.5 mg/kg.
Take `CNC(=O)[C@@H](Cc1ccccc1)NCc1ccc(OCc2ccccc2)cc1` [NW-1037, (R)-(−)-2-[4-benzyloxybenzylamino]-3-phenyl-N-methylpropanamide]: the ED50 in data set [1] (setting [3]) turned out to be 3.45 mg/kg. In addition, in data set [1], the “Interaction with GBP on the antiallodynic effect (ED50mix compared with ED50add or ED50 alone)” value is “synergic to GBP”.
For `CNC(=O)[C@H](C)NCc1ccc(OCc2cccc(F)c2)cc1` [NW-1043, (S)-(+)-2-[4-(3-fluorobenzyloxy)-benzylamino]-N-methyl-propanamide], in that order: 7.05 mg/kg and “synergic to GBP”.
